From patent publication US6353119B1, “Preparation of 3-substituted-4-arylquinolin-2-one derivatives” (Bristol-Myers Squibb Company, priority 1999, dated 2002)

Key:
[1] = tested on: cloned mammalian (mSlo or hSlo) BK channels heterologously expressed in Xenopus oocytes; test: BK-mediated outward current in Xenopus oocytes, two-electrode voltage clamp; format: cell-based, Xenopus oocyte; details: at 20 μM; IBTX-sensitive current; at least 5 oocytes
Protocol: The ability of compounds described in the present invention to open BK channels and increase whole-cell outward (K^+) BK-mediated currents was assessed under voltage-clamp conditions by determining their ability to increase cloned mammalian (mSlo or hSlo) BK-mediated outward current heterologously expressed in Xenopus oocytes [Butler, A., et al., Science, 261: 221-224 (1993); and Dworetzky, S. I., et al., Mol. Brain Res., 27: 189-193 (1994)]. The two BK constructs employed represent nearly structurally identical homologous proteins, and have proven to be pharmacologically identical in our tests. To isolate BK current from native (background, non-BK) current, the specific and potent BK channel-blocking toxin iberiotoxin (IBTX) [Galvez, A., et al., J. Biol. Chem., 265: 11083-11090 (1990)] was employed at a supramaximal concentration (50 nM). The relative contribution of BK channels current to total outward current was determined by subtraction of the current remaining in the presence of IBTX (non-BK current) from the current profiles obtained in all other experimental conditions (control, drug, and wash). […] All compounds were tested in at least 5 oocytes and are reported at the single concentration of 20 μM; the effect of the selected compounds of Formula I on BK current was expressed as the percent of control IBTX-sensitive current and is listed in Table 1. […]

[2] = tested on: ICP/BP responses elicited by stimulation of the cavernous nerve; test: In vivo erectile function model, intracavernous pressure response to cavernous nerve stimulation; parameters: species or system rat; details: 0.1-1 mg/kg i.v.; anesthetized rats
From the text: The in vivo model on erectile function is described fully in the scientific literature (Rehman, J., Chenven, E., Brink, P. Peterson, B., Wolcott, B., Wen, Y. P., Melman, A., Christ, G.: Diminished neurogenic but not pharmacological erections in the 2- to 3-month experimentally diabetic F-344 rat. Am. J. Physiol. 272: H1960-H1971, 1997). Briefly, rats (250-600 g) were anesthetized using sodium pentobarbital, the abdomen opened and the cavernous nerve identified. A pressure catheter was placed in the right corpus cavernosum (crus) to measure intracavernous pressure (ICP). A second catheter was introduced into the carotid artery to measure blood pressure. Test compound (0.1, 0.3 and 1 mg/kg i.v.) or vehicle (PEG 400) was given via a catheter placed into the jugular vein.
Control intracavernous pressure responses were elicited by electrically stimulating the cavernous nerve via bipolar stimulating electrodes (20 Hz, 0.22 ms pulse width). Stimulus amplitude (0.2-20 mA) was adjusted to produce a submaximal intracavernous pressure response (typically 0.2 or 0.5 mA). A series of control intracavernous pressure responses were then obtained using a constant stimulus amplitude. Test compound or vehicle was then administered (200 μl i.v bolus) and the cavernous nerve was restimulated to evoke a cavernous pressure response at various times post-drug administration. […]

[3] = tested on: permanent MCAO focal stroke model; test: Permanent focal ischemia, middle cerebral artery occlusion (MCAO) model; format: in vivo, spontaneously hypertensive rat; details: 0.003 mg/kg i.v. single bolus 2 hours after MCAO; infarct measured 24 hours after MCAO; vs vehicle-treated control
From the text: To determine the ability of these compounds to reduce cell loss resulting from neuronal ischemia, a standard rodent model of permanent focal ischemia, involving occlusion of the middle cerebral artery in the spontaneously hypertensive rat (middle cerebral artery occlusion (MCAO) model) was employed [Tamura, A., et al., Journal of Cerebral Blood Flow and Metabolism, Volume 1, 53-60, (1981)]. Selected compounds have been evaluated in the focal stroke model involving permanent MCAO in the spontaneously hypertensive rat. This procedure results in a reliably large neocortical infarct volume that is measured by means of vital dye exclusion in serial slices through the brain 24 hours after MCAO. In the present test, compounds were administered using an intravenous route of administration at 2 hours after occlusion.

Compound | BK Current, percent increase over BK current in controls [1] | ICP/BP responses elicited by sub-maximal stimulation of the cavernous nerve [2] | melting point [°C] | reduction of cortical infarct volume [3]
O=c1[nH]c2ccc(C(F)(F)F)cc2c(-c2cc(Cl)ccc2O)c1CCO [Example 4, 4-(5-Chloro-2-hydroxyphenyl)-3-(2-hydroxyethyl)-6-(trifluoromethy)-2(1H)-quinolinone] | ++ (++ = >200%) | produced an augmentation of the ICP/BP responses |  | 
COc1ccc(Cl)cc1-c1c(CCO)c(=O)[nH]c2ccc(C(F)(F)F)cc12 [Example 5, 4-(5-Chloro-2-methoxyphenyl)-3-(2-hydroxyethyl)-6-(trifluoromethyl)-2(1H)-quinolinone] | ++ (++ = >200%) |  | 216 to 217 | about 25%
